# Measurements from PubChem BioAssay (NCI).
# Values joined by “and” are separate entries in the source; they are usually repeats but may differ in a detail not shown here. Identical values can stand only once.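 Where inhibition never reached the appropriate level, the endpoint shown equals the highest concentration tested. Otherwise, values were interpolated linearly from a five-concentration, 48-hour dose response in 96-well plates. Here, GI50 denotes the concentration required for 50% inhibition of growth. Definition used: TGI = concentration required for complete inhibition of growth.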
# Assays:
# Assay in all cases: DTP human tumour cell line panel, 48 h
# 786-0 renal = test system: 786-0 renal
# A498 renal = test system: A498 renal
# CAKI-1 renal = test system: CAKI-1 renal
# COLO 205 colon = test system: COLO 205 colon
# NCI-H23 lung = test system: NCI-H23 lung
# OVCAR-8 ovarian = test system: OVCAR-8 ovarian
# SF-268 CNS = test system: SF-268 CNS
# SK-OV-3 ovarian = test system: SK-OV-3 ovarian
# SW-620 colon = test system: SW-620 colon
# UACC-257 melanoma = test system: UACC-257 melanoma
SMILES,GI50 (786-0 renal),TGI (786-0 renal),GI50 (A498 renal),TGI (A498 renal),GI50 (CAKI-1 renal),TGI (CAKI-1 renal),GI50 (COLO 205 colon),TGI (COLO 205 colon),GI50 (NCI-H23 lung),TGI (NCI-H23 lung),GI50 (OVCAR-8 ovarian),TGI (OVCAR-8 ovarian),GI50 (SF-268 CNS),TGI (SF-268 CNS),GI50 (SK-OV-3 ovarian),TGI (SK-OV-3 ovarian),GI50 (SW-620 colon),TGI (SW-620 colon),GI50 (UACC-257 melanoma),TGI (UACC-257 melanoma)
O=C(CCCCCCCn1cc(-c2cccnc2)nn1)Nc1ccccc1-c1ccccc1,4.13 µM,> 100 µM,13.7 µM,> 86.1 µM,1.29 µM,> 58.4 µM,1.92 µM,49.7 µM,13.8 µM,> 100 µM,0.0437 µM,27.9 µM,20.4 µM,> 100 µM,12.5 µM,> 100 µM,0.0526 µM,> 100 µM,7.75 µM,24.9 µM
Cc1cccc(-c2nn3c(c2-c2ccnc4ccc(C(N)=O)cc24)CCC3)n1,> 100 µM,> 100 µM,97.5 µM,> 100 µM,> 100 µM,> 100 µM,> 100 µM,> 100 µM,> 100 µM,> 100 µM,> 100 µM,> 100 µM,> 100 µM,> 100 µM,> 100 µM,> 100 µM,> 100 µM,> 100 µM,> 100 µM,> 100 µM
CCC(=O)C1(c2ccccc2)CCN(C)CC1,–,> 100 µM,–,> 100 µM,–,> 100 µM,–,> 100 µM,–,> 100 µM,–,> 100 µM,–,> 100 µM,–,> 100 µM,–,> 100 µM,–,> 100 µM
CCc1c2c(nc3cc4c(c(N)c13)OCO4)-c1cc3c(c(=O)n1C2)COC(=O)[C@]3(O)CC,–,> 100 µM,0.00758 µM and 0.0334 µM,0.252 µM and 0.459 µM,< 0.001 µM,0.00741 µM,0.696 µM,–,< 0.001 µM,–,–,14.7 µM,–,15.2 µM,< 0.001 µM,–,–,> 100 µM,0.199 µM and 0.0583 µM,2.58 µM and 2.47 µM
COc1cccc(Cn2c(-c3nonc3N)nc3ccccc32)c1,0.569 µM,> 100 µM,0.0532 µM,0.696 µM,0.404 µM,> 100 µM,0.393 µM,10.1 µM,0.717 µM,> 100 µM,0.61 µM,> 100 µM,0.844 µM,> 100 µM,0.414 µM,25.9 µM,0.372 µM,> 100 µM,0.314 µM,> 100 µM
C=CC(=O)N1C/C(=C\c2ccccc2)C(=O)/C(=C/c2ccccc2)C1,–,2.54 µM,–,4.03 µM,–,6.88 µM,–,3.87 µM,–,5.43 µM,0.8 µM,4.94 µM,–,5.61 µM,–,7.58 µM,0.534 µM,0.831 µM,–,4.29 µM
O=C1/C=C/[C@@H](O)[C@@H]2C[C@@H](O)C[C@H]2/C=C/CCC[C@H](CCc2ccc(C(F)(F)F)cc2)O1,0.0826 µM,0.378 µM,0.0533 µM,0.277 µM,0.312 µM,> 100 µM,0.175 µM,0.319 µM,0.236 µM,1.57 µM,0.219 µM,> 100 µM,0.371 µM,> 100 µM,0.279 µM,30.2 µM,0.297 µM,1.27 µM,0.182 µM,> 40.2 µM
CN1CCC(CNc2ccc3ncc(-c4cccc(OC(F)(F)F)c4)n3n2)CC1,1.78 µM and 1.69 µM,3.45 µM and 4.06 µM,0.869 µM and 1.58 µM,3.28 µM and 7.47 µM,1.47 µM and 1.83 µM,3.57 µM and > 10 µM,1.59 µM and 1.47 µM,3.07 µM and 3.08 µM,2.47 µM and 3.96 µM,9.48 µM and > 10 µM,2.46 µM and 2.89 µM,8.2 µM and > 10 µM,1.57 µM and 3.2 µM,3.64 µM and > 10 µM,1.89 µM and 3.94 µM,4.98 µM and > 10 µM,2.03 µM and 2.13 µM,4.77 µM and 6.09 µM,1.51 µM and 1.44 µM,3.05 µM and 2.8 µM
COc1ccc(-c2nsc3c2NC(=O)CC3c2ccc(F)cc2)cc1 (stereo unspecified),15.2 µM,> 100 µM,2.37 µM,> 100 µM,2.28 µM,18.4 µM,2.49 µM,8.39 µM,6.1 µM,> 100 µM,5.66 µM,> 100 µM,10.2 µM,> 100 µM,4.59 µM,> 100 µM,2.77 µM,> 100 µM,16.6 µM,> 100 µM
CC(C)CC1C(=O)N2CCC[C@H]2C2(O)O[C@](NC(=O)C3C=C4c5cccc6[nH]c(Br)c(c56)C[C@H]4N(C)C3)(C(C)C)C(=O)N12 (stereo partly specified),25.7 µM,> 100 µM,3.21 µM,> 100 µM,2.81 µM,> 100 µM,–,> 100 µM,8.22 µM,> 100 µM,–,> 100 µM,9.02 µM,> 100 µM,9.66 µM,> 100 µM,9.23 µM,> 100 µM,16.7 µM,> 100 µM
Cc1cc(C(=O)Nc2nc3cccc(Cl)c3n2[C@@H]2CCCCN(C(=O)/C=C/CN(C)C)C2)ccn1,3.78 µM,21.6 µM,0.514 µM,14.1 µM,0.58 µM,17.2 µM,7.69 µM,22.4 µM,12.9 µM,38 µM,11.4 µM,40.3 µM,10.6 µM,28.3 µM,0.0792 µM,9.03 µM,14.6 µM,31.5 µM,18.8 µM,34.1 µM
CC1=C(C(=O)Nc2ccccc2C)C(c2ccc(C3C(C(=O)Nc4ccccc4C)=C(C)NC(C)=C3C(=O)Nc3ccccc3C)cc2)C(C(=O)Nc2ccccc2C)=C(C)N1,–,17.3 µM,–,29 µM,–,22.7 µM,–,14.5 µM,–,9.6 µM,–,8.57 µM,–,7.18 µM,–,28.8 µM,–,6.3 µM,–,9.84 µM
O=c1[nH]cc(/C=N\Nc2ccccc2)c(=O)[nH]1,–,> 100 µM,–,> 100 µM,–,> 100 µM,–,> 100 µM,–,> 100 µM,–,> 100 µM,–,> 100 µM,–,> 100 µM,–,> 100 µM,–,> 100 µM
Cc1ccc2c(c1)C(C)Cc1c(ncnc1-n1cnc3cc(C)ccc31)N2C (stereo unspecified),0.0371 µM,12.5 µM,0.0297 µM,2 µM,0.0407 µM,12.4 µM,0.0224 µM,0.0553 µM,0.0567 µM,21.5 µM,0.037 µM,15.8 µM,0.045 µM,12.3 µM,0.0295 µM,1.09 µM,0.0417 µM,15.9 µM,5.34 µM,21.4 µM
C/C1=C/C(=O)O[C@@H]2C[C@@H](CC[C@H](C)/C=C\C=C\CC1)O[C@@](O)([C@@H]1CSC(=O)N1CO)C2,0.137 µM,12.3 µM,0.0183 µM,0.0724 µM,0.0203 µM,0.382 µM,0.0374 µM,0.146 µM,0.151 µM,30.4 µM,1.6 µM,74.6 µM,0.0418 µM,0.198 µM,0.0504 µM,0.404 µM,12.6 µM,30 µM,0.42 µM,16 µM
C=C(C)[C@@H]1CC[C@]2(C(N)=O)CC[C@]3(C)[C@H](CC[C@@H]4[C@@]5(C)CC[C@H](O)C(C)(C)[C@@H]5CC[C@]43C)[C@@H]12,2.03 µM,4.61 µM,12.2 µM,76.5 µM,1.98 µM,4.98 µM,3.63 µM,15 µM,2.26 µM,5.21 µM,3.12 µM,> 100 µM,4.34 µM,> 100 µM,8.18 µM,29.8 µM,3.88 µM,26.1 µM,13.2 µM,> 100 µM
COC(=O)[C@H]1C(=O)[C@@]2(C)[C@H]([C@H](OC(=O)c3ccccc3)[C@]3(O)C[C@H](OC(=O)[C@H](O)[C@@H](NC(=O)c4ccc(F)cc4)c4ccccc4)C(C)=C1C3(C)C)[C@]1(OC(C)=O)CO[C@@H]1C[C@@H]2O,0.0805 µM,–,0.0315 µM,–,0.12 µM,> 16.3 µM,0.00709 µM,0.0565 µM,0.0202 µM,> 25 µM,0.0171 µM,> 25 µM,0.0151 µM,> 25 µM,0.0115 µM,> 25 µM,0.00821 µM,> 25 µM,0.0673 µM,> 25 µM
COc1ccccc1/C=C/C(=O)c1c(O)cc2occc2c1OC,35.3 µM,98.4 µM,46 µM,> 100 µM,> 100 µM,> 100 µM,> 100 µM,> 100 µM,22.4 µM,> 100 µM,53.8 µM,> 100 µM,22.2 µM,> 100 µM,21.3 µM,84.4 µM,> 100 µM,> 100 µM,> 100 µM,> 100 µM
Cc1nnc(N=Nc2c(O)[nH]c3c(Cl)cc(Cl)cc23)n1N,–,> 100 µM,–,> 100 µM,–,> 100 µM,–,> 100 µM,–,> 100 µM,–,> 100 µM,–,> 100 µM,–,> 100 µM,–,> 100 µM,–,> 100 µM
COc1ccccc1-c1cc(/C=C2\C(=O)Nc3ncc(Br)cc32)cc(Br)c1O,12.2 µM,> 25 µM,3.73 µM,19.5 µM,10.1 µM,> 25 µM,20.2 µM,> 25 µM,10.5 µM,> 25 µM,> 19.1 µM,> 25 µM,11.1 µM,> 25 µM,> 21.3 µM,> 25 µM,19.4 µM,> 25 µM,16.4 µM,> 25 µM
c1ccc(N=c2snc3scc(-c4ccccc4)n23)cc1,–,> 100 µM,–,> 100 µM,–,> 100 µM,–,80.6 µM,–,> 100 µM,–,> 100 µM,–,> 100 µM,–,> 100 µM,–,> 100 µM,–,> 100 µM
CCOC(=O)Cc1nc2ccccc2s1,–,32.9 µM,–,36 µM,–,48.1 µM,–,> 100 µM,–,29.3 µM,–,32.8 µM,–,39.2 µM,–,> 100 µM,–,34.3 µM,–,33.2 µM
CCOC(CCCNCCCn1c2c(c3cc(OC)c(OC)cc3c1=O)C(=O)c1cc3c(cc1-2)OCO3)OCC,4.35 µM,10.6 µM,5.79 µM,12.1 µM,1.43 µM,7.61 µM,7.81 µM,14.5 µM,5.65 µM,11.7 µM,5.27 µM,11.2 µM,2.97 µM,10.4 µM,6.47 µM,12.8 µM,2.63 µM,10.5 µM,7.21 µM,13.7 µM
CC(C)N(C(=O)C1(C)CC1)C(C)C,–,> 100 µM,–,> 100 µM,–,> 100 µM,–,> 100 µM,–,> 100 µM,–,> 100 µM,–,> 100 µM,–,> 100 µM,–,> 100 µM,–,> 100 µM
C[C@@H](N)C1CCC(C(=O)Nc2ccncc2)CC1 (stereo partly specified),> 100 µM,> 100 µM,> 100 µM,> 100 µM,> 40.4 µM,> 100 µM,> 100 µM,> 100 µM,> 100 µM,> 100 µM,> 100 µM,> 100 µM,> 83 µM,> 100 µM,> 100 µM,> 100 µM,> 100 µM,> 100 µM,> 100 µM,> 100 µM
COC(=O)[C@H]1[C@@H](O)[C@@]2(O)c3c(OC)cc(O[C@@H]4O[C@@H]([C@H](O)CO)CO[C@H]4OC)cc3O[C@@]2(c2ccc(OC)cc2)[C@@H]1c1ccccc1,0.0282 µM,0.127 µM,0.00537 µM,0.0141 µM,0.997 µM,> 1 µM,0.00309 µM,0.00989 µM,0.00441 µM,0.0422 µM,0.0193 µM,0.136 µM,0.00342 µM,0.0425 µM,0.00296 µM,0.0325 µM,0.00605 µM,0.186 µM,0.00627 µM,0.0451 µM
O=Nc1ccc(O)c2ccccc12,4.1 µM,12.6 µM,15.1 µM,28.6 µM,1.63 µM,4.03 µM,1.93 µM,3.92 µM,1.45 µM,4.17 µM,1.57 µM,5 µM,2.29 µM,5.87 µM,4.93 µM,16.3 µM,1.82 µM,3.6 µM,1.63 µM,3.23 µM
